Source: patent US11058737B2, “Use of Euycoma longifolia extract in alleviating symptoms and/or conditions associated with hormonal imbalance in females” ([…] BERHAD, priority 2018, dated 2021)

Legend:
Format in all cases: in vivo, Sprague Dawley rats
[1] = system: ovariectomized rats; assay: Clinical signs of toxicity and mortality in ovariectomized rat model; settings: 10 mg/kg intramuscular once every 4 weeks, 8 weeks
Protocol: (§1) 48 female Sprague dawley rats were ovariectomized or sham operated. Both sham and ovariectomized rats (n=8) received the vehicle. The remaining 3 group ovariectomized rats were orally administrated with Eurycoma longifolia aqueous extract 100 mg/kg, 300 mg/kg and 500 mg/kg b.w. The treatment continued for 8 weeks. Group 6 ovariectomized rats received testosterone undecanoate (10 mg/kg b.w) through the route of intramuscular injection once in every 4 weeks for 8 weeks. At week 8 of the last dose, sexual behaviors were recorded. Blood was collected for biochemical analysis. Calcium, phosphate, bone alkaline phosphatase (ALP), osteocalcin and hormone profile estimation was done. […]
(§2) In Group 2, only ovariectomy was performed. […] 30 gms feed was added daily to each animal in the morning time and leftover feed was recorded on next day from the same animal cage. […]

[2] = Body weight of ovariectomized rats; settings: 10 mg/kg intramuscular once every 4 weeks
Protocol: (§3) 48 female Sprague dawley rats were ovariectomized or sham operated. Both sham and ovariectomized rats (n=8) received the vehicle. The remaining 3 group ovariectomized rats were orally administrated with Eurycoma longifolia aqueous extract 100 mg/kg, 300 mg/kg and 500 mg/kg b.w. The treatment continued for 8 weeks. Group 6 ovariectomized rats received testosterone undecanoate (10 mg/kg b.w) through the route of intramuscular injection once in every 4 weeks for 8 weeks. At week 8 of the last dose, sexual behaviors were recorded. Blood was collected for biochemical analysis. Calcium, phosphate, bone alkaline phosphatase (ALP), osteocalcin and hormone profile estimation was done.
(§4) Test System • Animal species: Rats • Strain: Sprague Dawley • Justification for Selection of Species: Recommended and Justified by sponsor • Sex: Female • Age: 10-12 weeks (Mohamed et al, 2016) • Source of supply: In house breed • No. of groups: 6 • Group 1: Sham operated group (surgically opened but no ovariectomy) • Group 2: Ovariectomy group (Negative control) • Group 3: Ovariectomy+Low dose extract • Group 4: Ovariectomy+Middle dose extract • Group 5: Ovariectomy+High dose extract • Group 6: Ovariectomy+Testosterone undecanoate (Positive control) • No. of Animals/Group: 8 females/group • Age at Treatment: 12 weeks • Body Weight Range at Receipt: 120-250 gms • Animal Identification: Each animal will be marked by picric acid and numbering will be given individually to each animal. • Acclimatization: The rats were acclimatized for 1 week before treatment.
(§5) In Group 2, only ovariectomy was performed. Group 3, Group 4 and Group 5 received the Eurycoma longifolia aqueous extract daily at low dose (100 mg/kg), middle dose (300 mg/kg) and high dose (500 mg/kg) at respective concentrations orally for 8 weeks, whereas Group 6 received Testosterone undecanoate (10 mg/kg) intramuscular injection once in every 4 weeks for 8 weeks. • (i) Surgical Procedure • Anesthesia was induced by intraperitoneal injection of ketamine HCL (80 mg/kg) and the depth of anesthesia was checked by monitoring respiratory rate or simply testing the animal response to gentle pressure on the hind paws. After the onset of anesthesia, animal was placed under operating area. Clippers were used to clip the skin and shaved fur bilaterally to expose skin. The procedure was carried out by making two incisions to separately reach each ovary. Shaved skin was swab with 70% (v/v) ethanol. Anaesthetized animal was placed on the operating table with its back exposed and its tail towards the operator. A single dorsal incision (1 cm) was made penetrating the skin using small scissors. Incision was made in the lower back, directly below the bottom of the rib cage. Gently subcutaneous connective tissue was made free from the underlying muscle on each side using blunt forceps. Ovary was located under the thin muscle layer and a small incision (less than 1 cm) was made on each side to gain entry to the peritoneal cavity. The edge of the incision was holded securely with tooth forceps and the ovarian fat pad was retracted surrounding ovaries with blunt forceps to expose oviduct. Ovary was removed by gently severing the oviduct, using sterile, small scissors. Uterus was replaced and remaining part of the oviduct back into the abdominal cavity. Muscle layer was sutured and procedure was repeated for the other ovary. […] 30 gms feed was added daily to each animal in the morning time and leftover feed was recorded on next day from the same animal cage. […]

[3] = system: ovariectomized rat model; assay: Biochemical estimations: serum calcium, phosphate, bone alkaline phosphatase, osteocalcin; settings: ovariectomized rats
Protocol: (§6) The test item, i.e. aqueous extract of Eurycoma longifolia, was studied for its capabilities or effect in relation to the alleviation or treatment of menopause symptoms and hormonal activity against ovariectomized rat model in vivo.
as §3, §4
as §5, with “oviduct.” for “oviduct. Ovary was removed by gently severing the oviduct, using sterile, small scissors. Uterus was replaced and remaining part of the oviduct back into the abdominal cavity. Muscle layer was sutured and procedure was repeated for the other ovary.”

[4] = system: ovariectomized rat model; assay: Reproductive hormone levels in rat serum (FSH, LH, progesterone, estrogen, testosterone; CLIA); settings: ovariectomized rats, 10 mg/kg intramuscular once every 4 weeks, 8 weeks
Protocol: as §6, §3, §4
as §5, with “oviduct.” for “oviduct. Ovary was removed by gently severing the oviduct, using sterile, small scissors. Uterus was replaced and remaining part of the oviduct back into the abdominal cavity. Muscle layer was sutured and procedure was repeated for the other ovary.”

[5] = system: ovariectomized rat model; assay: Uterus weight at necropsy; settings: ovariectomized rats, 10 mg/kg intramuscular once every 4 weeks
Protocol: as §1, §2

[6] = serum, 10 mg/kg intramuscular once every 4 weeks, 8 weeks, 10 mg/kg

CCCCCCCCCCC(=O)O[C@H]1CC[C@H]2[C@@H]3CCC4=CC(=O)CC[C@]4(C)[C@H]3CC[C@]12C [Testosterone undecanoate]
No. of Mortality/No. of Animals Dosed [1]: 0/8 | Body Weight ([2]; Basal): 185.0 ± 3.35 | Body Weight ([2]; Week 1): 196.0 ± 3.17 | Body Weight ([2]; Week 2): 207.4 ± 2.99 | Body Weight ([2]; Week 3): 217.8 ± 3.31 | Body Weight ([2]; Week 4): 229.4 ± 3.24 | Body Weight ([2]; Week 5): 238.6 ± 3.33 | Body Weight ([2]; Week 6): 244.8 ± 3.53 | Body Weight ([2]; Week 7): 252.9 ± 4.37 | Body Weight ([2]; Week 8): 259.3 ± 4.85 | Percentage of Weight Gain ([2]; from basal to Week 1): 5.95% | Percentage of Weight Gain ([2]; from basal to Week 2): 12.11% | Percentage of Weight Gain ([2]; from basal to Week 3): 17.73% | Percentage of Weight Gain ([2]; from basal to Week 4): 24.00% | Percentage of Weight Gain ([2]; from basal to Week 5): 28.97% | Percentage of Weight Gain ([2]; from basal to Week 6): 32.32% | Percentage of Weight Gain ([2]; from basal to Week 7): 36.70% | Percentage of Weight Gain ([2]; from basal to Week 8): 40.16% | serum osteocalcin levels, change ([3]; positive control 10 mg/kg intramuscular, no significant changes): Decreased serum osteocalcin levels | Osteocalcin ([3]; serum, 10 mg/kg intramuscular once every 4 weeks, 8 weeks): 7.26 ± 0.20 ng/mL | Bone Alkaline phosphatase [3, 6]: 3.06 ± 0.12 ng/mL | Calcium [3, 6]: 8.48 ± 0.16 mg/dL | Phosphate [3, 6]: 3.29 ± 0.13 mg/dL | Estrogen [4]: 12.35 ± 0.25 pg/mL | FSH [4]: 3.96±0.22 mlU/ml | LH [4]: 3.76±0.11 mlU/ml | Progesterone [4]: 3.31 ± 0.15 ng/mL | Testosterone [4]: 13.01 ± 0.41 ng/mL | uterus weight, effect after ovariectomy [5]: prevented the ovariectomy induced loss of uterus weight | UTERUS WEIGHT ([5]; 8 weeks, 10 mg/kg): 389.74 ± 8.26 mg
